Experimental data taken from the NIST ThermoML archive (doi:10.1021/je800876t).

Experiment: molar heat capacity at constant pressure
Details: 101.33 kPa, Crystal, Vacuum adiabatic calorimetry

O=C([O-])c1ccccc1.O=C([O-])c1ccccc1.[Ba+2] [barium benzoate]
Details | molar heat capacity at constant pressure [J/K/mol]
77.78 K | 109.64
79.5 K | 111.79
82.08 K | 114.77
84.57 K | 117.57
86.98 K | 119.65
89.39 K | 121.92
91.65 K | 124.31
93.86 K | 126.6
96.1 K | 128.79
98.25 K | 130.89
100.3 K | 132.67
102.4 K | 134.86
104.4 K | 137.21
106.5 K | 139.25
108.3 K | 141.18
110.3 K | 142.99
112.2 K | 144.86
114.1 K | 146.37
115.9 K | 148.24
117.8 K | 150.2
119.6 K | 152.24
122.4 K | 154.37
125.9 K | 157.49
128.8 K | 160.12
131.6 K | 162.83
134.5 K | 165.78
137.4 K | 168.03
140.3 K | 170.89
143.1 K | 173.54
146.1 K | 176.75
148.9 K | 178.82
152.8 K | 182.27
154.7 K | 184.19
157.6 K | 186.99
160.4 K | 189.18
163.4 K | 191.95
166.3 K | 194.11
169.1 K | 197.21
172 K | 199.98
174.9 K | 202.6
177.8 K | 204.53
180.6 K | 207.13
184.7 K | 211.18
188.6 K | 214.68
191.5 K | 216.93
194.4 K | 219.24
197.2 K | 221.9
200.2 K | 224.02
203.1 K | 226.01
206 K | 228.46
208.9 K | 231.14
211.8 K | 233.77
214.6 K | 235.99
217.5 K | 238.64
220.5 K | 240.68
223.4 K | 243.49
226.3 K | 245.79
229.1 K | 248.3
232 K | 250.4
235 K | 253.03
238 K | 255.71
242.6 K | 259.3
245.5 K | 262.07
248.3 K | 264.47
251.2 K | 266.71
254.2 K | 269.22
257 K | 270.83
259.8 K | 272.78
262.7 K | 276.16
265.6 K | 277.74
268.6 K | 279.79
271.6 K | 282.06
274.5 K | 284.16
277.5 K | 286.12
280.4 K | 288.42
283.3 K | 290.79
286.3 K | 292.92
289.2 K | 295.05
292 K | 297.35
294.9 K | 299.58
297.9 K | 301.75
300.8 K | 303.71
303.6 K | 305.99
306.5 K | 308.5
309.3 K | 310.54
312.2 K | 312.73
315.2 K | 314.63
318.2 K | 316.73
321.2 K | 318.3
324.1 K | 320.78
327 K | 322.91
330 K | 325.19
332.9 K | 327.09
335.9 K | 329.01
338.7 K | 330.94
341.6 K | 333.36
344.6 K | 335.34
347.5 K | 337.3
350.3 K | 339.28
353.2 K | 340.83
356.2 K | 342.81
359 K | 344.74
361.9 K | 346.43
364.8 K | 348.25
367.6 K | 350.41
370.5 K | 352.35
373.5 K | 354.08
376.4 K | 355.62
379.4 K | 358.05
382.4 K | 359.77
385.3 K | 361.34
388.3 K | 363.44
390.7 K | 364.99
393 K | 366.42
395.9 K | 368.64
398.9 K | 370.39
401.9 K | 371.91
